# Experimental data published in PubChem BioAssay (NCI).
#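 Compound exposure: 48 hours, 5 concentrations, 96-well plates. GI50: concentration for 50% inhibition of growth. TGI marks complete inhibition of growth.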
# System: A498 renal
# Assay: DTP human tumour cell line panel, 48 h
SMILES,GI50,TGI
O=c1/c(=C/c2ccco2)sc2nc3ccccc3n12,> 100 µM,> 100 µM
O=C1CCC2(c3ccc(F)cc3)Nc3cc(Cl)ccc3N12 (stereo not drawn),–,> 100 µM
C/C(CC(=O)Nc1ccc(C)cc1C)=N/N=C(N)N,–,> 100 µM

# System: MCF7 breast
# Assay: DTP human tumour cell line panel, 48 h
SMILES,TGI,GI50
CC(=O)OCCN1c2ccccc2Sc2cnccc21,> 10 µM,–
CC(C)(CC(=O)Nc1ccccc1)C(=O)O,> 100 µM,–
COc1ccc(/C(COc2c(-c3ccccc3)oc3ccccc3c2=O)=N\O)cc1,29.5 µM,10.8 µM
CC(C)c1nc(CN(C)C(=O)N[C@H](C(=O)N[C@@H](Cc2ccccc2)C[C@H](O)[C@H](Cc2ccccc2)NC(=O)OCc2cncs2)C(C)C)cs1,64.9 µM,21 µM

# System: UO-31 renal
# Assay: DTP human tumour cell line panel, 48 h
SMILES,GI50,TGI
CN1CCN(C(=O)OCc2nc3c(N4CCOCC4)nc(Cl)nc3n2C)CC1,1.07 µM,2.29 µM
COC(=O)c1c/c(=N\NC(=O)CC(=O)Nc2ccccc2OC)c2ccccc2o1,–,> 100 µM
NC(CCC(=O)NC(CSSCCCCS(=O)O)C(=O)NCC(=O)O)C(=O)O (stereo not drawn),–,> 100 µM
COC12C=C(C)C(CC1)CC2C(=O)O (stereo not drawn),–,> 100 µM
OCC(O)CC[CH2][Sn]([Br])([c]1ccccc1)[c]1ccccc1 (stereo not drawn),> 100 µM,> 100 µM
CCc1ccc(/C=C\c2cc(OC)c(OC)c(OC)c2)cc1,0.0512 µM,81.3 µM
O=c1c2cc([N+](=O)[O-])ccc2sc2ccsc12,–,> 100 µM
COc1ccc(C2=CC3CCC2C3)cc1 (stereo not drawn),–,> 100 µM
COc1ccc(/C=C/CN(C)CCc2ccccc2)cc1OC,–,> 100 µM
C=C1C(=O)O[C@H]2[C@H]1CC/C(Cn1cc(-c3ccc(OC)cc3)nn1)=C\CC[C@@]1(C)O[C@@H]21,1.27 µM,2.64 µM
[Cl-].[Dy+3].[O-]/N=C(\c1ccccc1)c1ccccn1.[O-]/N=C(\c1ccccc1)c1ccccn1.[O-]/N=C(\c1ccccc1)c1ccccn1,25.3 µM,65.3 µM
CC(=O)OCCN1c2ccccc2Sc2cnccc21,–,> 10 µM
CC(C)(CC(=O)Nc1ccccc1)C(=O)O,–,> 100 µM
COc1ccc(/C(COc2c(-c3ccccc3)oc3ccccc3c2=O)=N\O)cc1,41.4 µM,> 50 µM
NC(=O)C(=O)N/N=C(\CC1(O)C(=O)Nc2ccccc21)c1ccc2ccccc2c1 (stereo not drawn),–,> 100 µM
COC(=O)/C(=N/NC(=O)C[N+](C)(C)C)C(C(=O)OC)C(=O)C(=O)Nc1ccc(F)cc1 (stereo not drawn),–,> 100 µM
O=C(c1ccccc1)c1nnc(C(=O)c2ccccc2)nn1,–,> 344 µM

SMILES,GI50,TGI
Brc1cccc(C=NC23CC4CC(CC(C4)C2)C3)c1,–,> 100 µM
CC(C)c1nc(CN(C)C(=O)N[C@H](C(=O)N[C@@H](Cc2ccccc2)C[C@H](O)[C@H](Cc2ccccc2)NC(=O)OCc2cncs2)C(C)C)cs1,24.5 µM,> 83.8 µM
CCC[CH2][Sn]([CH2]CCC)([O]C(=O)c1cccnc1SC)[O]C(=O)c1cccnc1SC,1.36 µM,2.66 µM
O=C1O[C@@H](c2ccc3c(c2)OCO3)C2C(=O)O[C@@H](c3ccc4c(c3)OCO4)C12 (stereo partly drawn),–,> 100 µM
O=C1CCC(=O)N2CCCCN12,–,> 100 µM
CC(C)C(=O)NC(=S)Nc1ccc([N+](=O)[O-])cc1C#N,–,> 100 µM
C/C(CC(=O)Nc1cc(Cl)c(Cl)cc1Cl)=N\NC(N)=O,–,> 100 µM
N#Cc1cc([N+](=O)[O-])ccc1NC(=O)C(=O)Nc1n[nH]c(N)n1,–,> 100 µM
O=C(/C=C/c1c(O)ccc2ccccc12)c1cccc(O)c1,–,> 100 µM
CC1=NN(C(=O)Nc2ccccc2)C(=O)C2CCC(=O)N12 (stereo not drawn),–,> 100 µM
COC(=O)C1Cc2c(n(Cc3ccccc3)c3ccccc23)C(CCC(=O)O)N1C(C)C (stereo not drawn),–,> 100 µM
O=C(O)CNS(=O)(=O)c1ccc(NCc2ccccc2)cc1,–,> 100 µM
CC(C)(C)C1C=C(Sc2ccccc2)C(=O)O1 (stereo not drawn),–,92.1 µM
CCC[CH2][Sn]1([CH2]CCC)[O]Cc2nc(C)ccc2[O]1,13.3 µM,26.1 µM
O=c1/c(=C/c2ccco2)sc2nc3ccccc3n12,–,> 10 µM
O=C1CCC2(c3ccc(F)cc3)Nc3cc(Cl)ccc3N12 (stereo not drawn),–,> 100 µM
C/C(CC(=O)Nc1ccc(C)cc1C)=N/N=C(N)N,–,> 100 µM

# System: HS 578T breast
# Assay: DTP human tumour cell line panel, 48 h
SMILES,GI50,TGI
CN1CCN(C(=O)OCc2nc3c(N4CCOCC4)nc(Cl)nc3n2C)CC1,1.64 µM,5.38 µM
CCc1ccc(/C=C\c2cc(OC)c(OC)c(OC)c2)cc1,–,0.106 µM
C=C1C(=O)O[C@H]2[C@H]1CC/C(Cn1cc(-c3ccc(OC)cc3)nn1)=C\CC[C@@]1(C)O[C@@H]21,7.42 µM,36.9 µM

# System: SF-268 CNS
# Assay: DTP human tumour cell line panel, 48 h
SMILES,GI50,TGI
CN1CCN(C(=O)OCc2nc3c(N4CCOCC4)nc(Cl)nc3n2C)CC1,1.59 µM,3.72 µM
COC(=O)c1c/c(=N\NC(=O)CC(=O)Nc2ccccc2OC)c2ccccc2o1,–,> 100 µM
NC(CCC(=O)NC(CSSCCCCS(=O)O)C(=O)NCC(=O)O)C(=O)O (stereo not drawn),–,> 100 µM
COC12C=C(C)C(CC1)CC2C(=O)O (stereo not drawn),–,> 100 µM
CCc1ccc(/C=C\c2cc(OC)c(OC)c(OC)c2)cc1,0.06 µM,46.9 µM
O=c1c2cc([N+](=O)[O-])ccc2sc2ccsc12,–,> 100 µM
COc1ccc(C2=CC3CCC2C3)cc1 (stereo not drawn),–,> 100 µM
COc1ccc(/C=C/CN(C)CCc2ccccc2)cc1OC,–,> 100 µM
C=C1C(=O)O[C@H]2[C@H]1CC/C(Cn1cc(-c3ccc(OC)cc3)nn1)=C\CC[C@@]1(C)O[C@@H]21,2.07 µM,5.23 µM
[Cl-].[Dy+3].[O-]/N=C(\c1ccccc1)c1ccccn1.[O-]/N=C(\c1ccccc1)c1ccccn1.[O-]/N=C(\c1ccccc1)c1ccccn1,30.2 µM,98.9 µM
CC(=O)OCCN1c2ccccc2Sc2cnccc21,–,> 10 µM
COc1ccc(/C(COc2c(-c3ccccc3)oc3ccccc3c2=O)=N\O)cc1,13.4 µM,41 µM
NC(=O)C(=O)N/N=C(\CC1(O)C(=O)Nc2ccccc21)c1ccc2ccccc2c1 (stereo not drawn),–,> 100 µM
Cc1cc2c(cc1C)[n+](=O)c(C(=O)C/C(=N/NC(=O)CC#N)C(=O)Nc1ccccc1C(F)(F)F)c(C)n2[O-],–,> 100 µM
COC(=O)/C(=N/NC(=O)C[N+](C)(C)C)C(C(=O)OC)C(=O)C(=O)Nc1ccc(F)cc1 (stereo not drawn),–,> 100 µM
